# Assay results reported in patent publication US20240277698A1, “METHODS OF USING ALDOSTERONE SYNTHASE INHIBITORS” (CINCOR PHARMA, INC., priority 2021, published 2024).
# Target: T1, aldosterone synthase (Homo sapiens, UniProt P19099)
# T1 construct: synthesized in the adrenal cortex by aldosterone synthase; endogenous in cells; host or cells: adrenal cortex of healthy human subjects (in vivo, oral dosing)
# T1 sequence (P19099 25-503): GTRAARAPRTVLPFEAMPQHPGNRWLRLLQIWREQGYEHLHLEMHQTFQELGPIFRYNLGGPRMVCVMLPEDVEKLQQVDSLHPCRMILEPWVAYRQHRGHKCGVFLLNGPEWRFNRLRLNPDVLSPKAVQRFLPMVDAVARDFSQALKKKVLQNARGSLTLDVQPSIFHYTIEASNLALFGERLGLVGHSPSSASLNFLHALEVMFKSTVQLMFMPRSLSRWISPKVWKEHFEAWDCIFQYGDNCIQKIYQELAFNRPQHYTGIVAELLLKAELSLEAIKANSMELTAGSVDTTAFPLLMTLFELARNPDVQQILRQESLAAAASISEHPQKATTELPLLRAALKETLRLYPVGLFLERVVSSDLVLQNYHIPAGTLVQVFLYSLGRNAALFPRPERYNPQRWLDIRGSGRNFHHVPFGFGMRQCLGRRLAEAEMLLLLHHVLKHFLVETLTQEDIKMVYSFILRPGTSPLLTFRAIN
# Test: MAD study: plasma aldosterone and precursors (18-hydroxycorticosterone, corticosterone, 11-deoxycorticosterone)
# Assay type: in vivo
# Conditions: for Plasma 11-deoxycorticosterone, Day −1 predose / Plasma 18-hydroxycorticosterone, Day −1 predose / Plasma aldosterone, Day −1 predose / Plasma corticosterone, Day −1 predose: baseline; for inhibition of aldosterone synthesis: normal salt diet and low salt diet, 10-day dosing
# Source text: For each subject, the study consisted of: • A screening period of up to 28 days; • A 5-day inpatient run-in period during which subjects adhered to a controlled, standardized diet and underwent baseline PD assessments; • A 15-day inpatient treatment period, during which subjects received (R)-compound 1 or placebo once daily for 10 days while adhering to a controlled, standardized diet, followed by PK and PD sampling over an additional 5 days; and • A follow-up visit 3 days (1 day) after discharge from the clinical unit. • A cortisol stimulation test (Cohorts 1 and 2 only) and standing aldosterone assessment (all cohorts) were performed on Days 1 and 10. Serial blood samples for PK and PD were obtained prior to and at specified time points over 24 hours after dosing on Day 1 as well as prior to and at specified time points over 120 hours after dosing on Day 10. In addition, blood samples for PK were collected prior to dosing on Days 8 and 9. Urine for PK and PD measurements was collected over 24 hours starting just prior to dosing on Day 1 as well as over 120 hours starting just prior to dosing on Day 10. […]
# [1] = 2.5 mg QD, normal salt diet, mean
smiles,measurement,setting,value
"CCC(=O)N[C@@H]1CCCc2c(-c3ccc4c(c3)CCC(=O)N4C)cncc21 [(R)-Compound 1, (R)—N-(4-(1-methyl-2-oxo-1,2,3,4-tetrahydroquinolin-6-yl)-5,6,7,8-tetrahydroisoquinolin-8-yl)propionamide]","Plasma 18-hydroxycorticosterone, Day 10, 24 hours postdose","2.5 mg QD, low salt diet, mean",961.8 pg/mL
same,"Plasma 18-hydroxycorticosterone, Day 10, predose","2.5 mg QD, low salt diet, mean",895.4 pg/mL
same,"Plasma 18-hydroxycorticosterone, Percent change from Day −1 to Day 10","2.5 mg QD, low salt diet, mean",−22.0%
same,"Plasma aldosterone, Day 1, 12 hours postdose","2.5 mg QD, low salt diet, mean",48.013 pg/mL
same,"Plasma aldosterone, Day 1, predose","2.5 mg QD, low salt diet, mean",151.988 pg/mL
same,"Plasma aldosterone, Day 10, 12 hours postdose","2.5 mg QD, low salt diet, mean",69.100 pg/mL
same,"Plasma aldosterone, Day 10, 24 hours postdose","2.5 mg QD, low salt diet, mean",112.213 pg/mL
same,"Plasma aldosterone, Day 10, predose","2.5 mg QD, low salt diet, mean",97.538 pg/mL
same,"Plasma aldosterone, Percent change from Day −1 to Day 10, predose","2.5 mg QD, low salt diet, mean",−56.540%
same,"Plasma corticosterone, Day 1, 12 hours postdose","2.5 mg QD, low salt diet, mean",1653.4 pg/mL
same,"Plasma corticosterone, Day 1, predose","2.5 mg QD, low salt diet, mean",3711.5 pg/mL
same,"Plasma corticosterone, Day 10, 12 hours postdose","2.5 mg QD, low salt diet, mean",3412.5 pg/mL
same,"Plasma corticosterone, Day 10, 24 hours postdose","2.5 mg QD, low salt diet, mean",10012.5 pg/mL
same,"Plasma corticosterone, Day 10, predose","2.5 mg QD, low salt diet, mean",7190.0 pg/mL
same,"Plasma corticosterone, Percent change from Day −1 to Day 10, predose","2.5 mg QD, low salt diet, mean",132.0%
same,"Plasma 11-deoxycorticosterone, Day −1 predose",[1],50.017 pg/mL
same,"Plasma 18-hydroxycorticosterone, Day −1 predose",[1],1185.8 pg/mL
same,"Plasma aldosterone, Day −1 predose",[1],153.667 pg/mL
same,"Plasma corticosterone, Day −1 predose",[1],6395.0 pg/mL
same,"Plasma 11-deoxycorticosterone, Day 1, 12 hours postdose",[1],23.667 pg/mL
same,"Plasma 11-deoxycorticosterone, Day 1, predose",[1],53.200 pg/mL
same,"Plasma 11-deoxycorticosterone, Day 2, predose",[1],69.617 pg/mL
same,"Plasma 11-deoxycorticosterone, Day 10, 12 hours postdose",[1],93.780 pg/mL
same,"Plasma 11-deoxycorticosterone, Day 10, 24 hours postdose",[1],177.400 pg/mL
same,"Plasma 11-deoxycorticosterone, Day 10, predose",[1],130.680 pg/mL
same,"Plasma 11-deoxycorticosterone, Percent change from Day −1 to Day 10, predose",[1],171.567%
same,"Plasma 18-hydroxycorticosterone, Day 1, 12 hours postdose",[1],267.3 pg/mL
same,"Plasma 18-hydroxycorticosterone, Day 1, predose",[1],1087.0 pg/mL
same,"Plasma 18-hydroxycorticosterone, Day 2, predose",[1],901.2 pg/mL
same,"Plasma 18-hydroxycorticosterone, Day 10, 12 hours postdose",[1],345.6 pg/mL
same,"Plasma 18-hydroxycorticosterone, Day 10, 24 hours postdose",[1],1238.0 pg/mL
same,"Plasma 18-hydroxycorticosterone, Day 10, predose",[1],1073.4 pg/mL
same,"Plasma 18-hydroxycorticosterone, Percent change from Day −1 to Day 10",[1],−10.4%
same,"Plasma aldosterone, Day 1, 12 hours postdose",[1],16.535 pg/mL
same,"Plasma aldosterone, Day 1, predose",[1],131.250 pg/mL
same,"Plasma aldosterone, Day 2, predose",[1],37.700 pg/mL
same,"Plasma aldosterone, Day 10, 12 hours postdose",[1],46.360 pg/mL
same,"Plasma aldosterone, Day 10, 24 hours postdose",[1],120.740 pg/mL
same,"Plasma aldosterone, Day 10, predose",[1],101.880 pg/mL
same,"Plasma aldosterone, Percent change from Day −1 to Day 10, predose",[1],−34.296%
same,"Plasma corticosterone, Day 1, 12 hours postdose",[1],889.0 pg/mL
same,"Plasma corticosterone, Day 1, predose",[1],5828.3 pg/mL
same,"Plasma corticosterone, Day 2, predose",[1],6328.3 pg/mL
same,"Plasma corticosterone, Day 10, 12 hours postdose",[1],2704.0 pg/mL
same,"Plasma corticosterone, Day 10, 24 hours postdose",[1],11182.0 pg/mL
same,"Plasma corticosterone, Day 10, predose",[1],8102.0 pg/mL
same,"Plasma corticosterone, Percent change from Day −1 to Day 10, predose",[1],60.6%
same,"Plasma 11-deoxycorticosterone, Day −1 predose","5.0 mg QD, low salt diet, mean",49.111 pg/mL
same,"Plasma 18-hydroxycorticosterone, Day −1 predose","5.0 mg QD, low salt diet, mean",966.3 pg/mL
same,"Plasma aldosterone, Day −1 predose","5.0 mg QD, low salt diet, mean",189.633 pg/mL
same,"Plasma corticosterone, Day −1 predose","5.0 mg QD, low salt diet, mean",3700.7 pg/mL
same,"Plasma 11-deoxycorticosterone, Day 1, 12 hours postdose","5.0 mg QD, low salt diet, mean",94.622 pg/mL
same,"Plasma 11-deoxycorticosterone, Day 1, predose","5.0 mg QD, low salt diet, mean",55.789 pg/mL
same,"Plasma 11-deoxycorticosterone, Day 10, 12 hours postdose","5.0 mg QD, low salt diet, mean",219.700 pg/mL
same,"Plasma 11-deoxycorticosterone, Day 10, 24 hours postdose","5.0 mg QD, low salt diet, mean",308.444 pg/mL
same,"Plasma 11-deoxycorticosterone, Day 10, predose","5.0 mg QD, low salt diet, mean",218.611 pg/mL
same,"Plasma 11-deoxycorticosterone, Percent change from Day −1 to Day 10, predose","5.0 mg QD, low salt diet, mean",573.144%
same,"Plasma 18-hydroxycorticosterone, Day 1, 12 hours postdose","5.0 mg QD, low salt diet, mean",162.3 pg/mL
same,"Plasma 18-hydroxycorticosterone, Day 1, predose","5.0 mg QD, low salt diet, mean",825.8 pg/mL
same,"Plasma 18-hydroxycorticosterone, Day 10, 12 hours postdose","5.0 mg QD, low salt diet, mean",405.2 pg/mL
same,"Plasma 18-hydroxycorticosterone, Day 10, 24 hours postdose","5.0 mg QD, low salt diet, mean",1298.0 pg/mL
same,"Plasma 18-hydroxycorticosterone, Day 10, predose","5.0 mg QD, low salt diet, mean",1159.6 pg/mL
same,"Plasma 18-hydroxycorticosterone, Percent change from Day −1 to Day 10","5.0 mg QD, low salt diet, mean",38.2%
same,"Plasma aldosterone, Day 1, 12 hours postdose","5.0 mg QD, low salt diet, mean",17.511 pg/mL
same,"Plasma aldosterone, Day 1, predose","5.0 mg QD, low salt diet, mean",182.800 pg/mL
same,"Plasma aldosterone, Day 10, 12 hours postdose","5.0 mg QD, low salt diet, mean",49.467 pg/mL
same,"Plasma aldosterone, Day 10, 24 hours postdose","5.0 mg QD, low salt diet, mean",125.811 pg/mL
same,"Plasma aldosterone, Day 10, predose","5.0 mg QD, low salt diet, mean",98.367 pg/mL
same,"Plasma aldosterone, Percent change from Day −1 to Day 10, predose","5.0 mg QD, low salt diet, mean",−36.400%
same,"Plasma corticosterone, Day 1, 12 hours postdose","5.0 mg QD, low salt diet, mean",890.3 pg/mL
same,"Plasma corticosterone, Day 1, predose","5.0 mg QD, low salt diet, mean",2726.3 pg/mL
same,"Plasma corticosterone, Day 10, 12 hours postdose","5.0 mg QD, low salt diet, mean",4738.9 pg/mL
same,"Plasma corticosterone, Day 10, 24 hours postdose","5.0 mg QD, low salt diet, mean",13976.7 pg/mL
same,"Plasma corticosterone, Day 10, predose","5.0 mg QD, low salt diet, mean",11962.2 pg/mL
same,"Plasma corticosterone, Percent change from Day −1 to Day 10, predose","5.0 mg QD, low salt diet, mean",460.2%
same,doses that markedly decrease aldosterone levels,low salt diet and normal salt diet,> 0.5 mg
same,inhibition of aldosterone synthesis,,"marked, sustained, selective, and generally dose dependent inhibition"
same,inhibition of aldosterone synthesis,listed as (R)-compound 1,"marked, sustained, selective, and generally dose dependent inhibition"
